In patent US6630310B1, “Assay for binding between carbohydrate and glycolipid” (Biopolymer Engineering Pharmaceutical, Inc., priority 1996, dated 2003):

Columns and labels:
[1] = Competition of ^3H-PGG-Glucan binding to lactosyl ceramide in 96-well plate assay (FIGS. 14, 15); parameters: species or system bovine; settings: FIGS. 14 and 15
Description: FIG. 14 is a graph of the comparison of underivatized, aqueous soluble β(1-3)-glucan and single helix competition of ^3H-underivatized, aqueous soluble β(1-3)-glucan binding in three assay formats. Underivatized, aqueous soluble β(1-3)-glucan or single helix glucan was used at designated concentrations to compete for ^3H-underivatized, aqueous soluble β(1-3)-glucan binding to lactosyl ceramide (LacCer) in a 96-well plate (triangles), or to lactosyl ceramide in reconstituted membranes (squares), or to human leukocyte membranes (circles). Open symbols represent underivatized, aqueous soluble β(1-3) glucan, and closed symbols represent single helix. Maximum competition was assigned at the highest concentration of underivatized, aqueous soluble β(1-3)-glucan used as competitor in each type of assay.
FIG. 15 is a graphic illustration of data showing that underivatized, aqueous soluble β(1-3) glucan and high molecular weight underivatized, aqueous soluble β(1-3) glucan (Network) compete more effectively for ^3H-underivatized, aqueous soluble β(1-3)-glucan binding to lactosyl ceramide in a 96-well plate assay than do single helix or laminarin. […]
Lactosyl ceramide or the sample to be measured was suspended in ethanol. […] The plate was incubated at 60° C. for 5 minutes, then supernatants were removed and counted.

[2] = tested on: NF-κB; experiment: EMSA of NF-κB activation in BMC2.3 cells; type: cell-based, murine; settings: 3 μg/ml, various times at 37° C. (FIG. 4)
Experimental: (§1) In order to assess the activation of signal transduction as exemplified by the modulation of one or more transcriptional regulatory factors by underivatized, aqueous soluble β(1-3)-glucan, BMC2.3 cells were incubated with 3 μg/ml underivatized, aqueous soluble β(1-3)-glucan for various periods of time at 37° C. Nuclear extracts were prepared and incubated with ^32P-labeled DNA oligonucleotides specific for NF-κB or NF-IL6. The protein-^32P DNA complexes were separated from unbound ^32P DNA by gel electrophoresis (electrophoretic mobility shift assay, EMSA).
(§2) BMC2.3 cells in DMEM plus 10% fetal calf serum were incubated with 3 μg/ml underivatized, aqueous soluble β(1-3)-glucan for various lengths of time. Nuclear extracts were prepared by the method of Dignam et al. (Nuc. Acid Res. 11:1475-1489 (1983)). Nuclear extracts were then incubated with ^32P-labeled DNA oligonucleotide for twenty minutes at room temperature. The sequence of the oligonucleotide used as the probe was […] (SEQ ID NO: 1). The reaction mixture was then separated on a 4% polyacrylamide gel and the results recorded autoradiographically.

[3] = tested on: receptor for underivatized, aqueous soluble β(1-3)-glucan on human leukocyte membranes; experiment: Competition of ^3H-PGG-Glucan binding to human leukocyte membranes (oil/sucrose binding assay)
Experimental: Aminated glucan was prepared by reductive amination of curdlan and provided by Dr. Rolph Seljelid (University of Tromsφ, Tromsφ, Norway).
At the end of the incubation, 100 μl aliquots of reaction mixture were layered on top of a double layer density gradient consisting of 100 μl dibutyl phthalate (lower layer) and 100 μl 8% sucrose in PBS (upper layer) in 400 μl centrifuge tubes (Brinkman). The tubes were spun at 15,000×g for 4-5 minutes and the tips containing the membrane pellets were removed, incubated in 300 μl SOLVABLE™ (New England Nuclear, Boston, Mass.) overnight at 50° C. to dissolve the pellet, and then radioactivity determined by liquid scintillation counting. […] Alternatively, membranes were centrifuged directly in their incubation tubes at 15,000×g for 4-5 minutes at 37° C., the pellet washed with HBSS, then pellets solubilized and radioactivity determined by liquid scintillation counting.

[4] = tested on: human leukocyte membranes; experiment: Direct binding of radioactively labeled underivatized, aqueous soluble β(1-3)-glucan to human leukocyte membranes (time course, concentration-dependence, Scatchard)
Experimental: Bound radioactively labeled underivatized, aqueous soluble β(1-3)-glucan was separated from unbound ligand by centrifugation through a double layer density gradient, and the membrane pellet was solubilized and radioactivity determined. Equilibrium binding was achieved after 60 minutes at 37° C. at a concentration of 1 μg/ml radioactively labeled underivatized, aqueous soluble β(1-3)-glucan (FIG. 1).
Membrane-associated radioactivity was determined following centrifugation of the reaction mixture through a sucrose/oil density gradient as described in the Examples. Specific binding was calculated by subtracting non-specific binding from total binding. […]
Membranes were diluted to 2 to 5 mg/ml in HBSS with and without 1 mg/ml BSA. […] The tubes were spun at 15,000×g for 4-5 minutes and the tips containing the membrane pellets were removed, incubated in 300 μl SOLVABLE™ (New England Nuclear, Boston, Mass.) overnight at 50° C. to dissolve the pellet, and then radioactivity determined by liquid scintillation counting. No radioactivity was found in the oil layer in the absence of added membranes. […]

[5] = Competition of ^3H-PGG-Glucan binding to GalCer II
Experimental: Lactosyl ceramide or the sample to be measured was suspended in ethanol. Aliquots as specified were added in triplicate to the wells of a 96-well plate and air dried. The following components were premixed, then 100 μL was added to each well: saline (10 μL) or unlabelled, underivatized, aqueous soluble β(1-3)-glucan (10 μL of a 10 mg/ml stock), ^3H-underivatized, aqueous soluble β(1-3) glucan (10 μL of a 10 μg/ml stock), and HBSS (80 μL). Plates were incubated at 37° C. for 1.5 to 2 hours, then supernatants were removed from each well and discarded. Wells were rinsed with HBSS (200 μL) and SOLVABLE™ (100 μL) was added. The plate was incubated at 60° C. for 5 minutes, then supernatants were removed and counted.

[6] = tested on: NF-IL6; experiment: EMSA of NF-IL6 activation in BMC2.3 cells; type: cell-based, murine; settings: 3 μg/ml, various times at 37° C. (FIG. 5)
Experimental: as §1, §2

With “underivatized, aqueous soluble β(1-3)-glucan [PGG-Glucan]” the “competition for ^3H-underivatized, aqueous soluble β(1-3)-glucan binding to LacCer in the 96-well plate assay (in words)” value [1] was “competes”, the “NF-κB protein-^32P DNA complex formation (EMSA, in words)” value [2] was “time dependent increase in protein-DNA complexes” and the “competition for ^3H-underivatized, aqueous soluble β(1-3)-glucan binding to HLM (in words)” value ([3]; FIG. 14) was “competes”. The “% Control Binding” value ([3]; addition at 0.1 mg/ml, ^3H-PGG-Glucan binding to human leukocyte membranes) was 22%, the “binding to its receptor at room temperature or below (in words)” value [4] was “does not bind” and the “% Control Binding” value ([5]; ligand 0.01 mg hexose/mL) was 23.6%. The “% Control Binding” value ([5]; ligand 0.1 mg hexose/mL) was 3.0%, the “% Control Binding” value ([5]; ligand 1.0 mg hexose/mL) was 1.4% and the “NF-IL6 protein-^32P DNA complex formation (EMSA, in words)” value [6] was “time dependent increase in protein-DNA complexes”.
